Laboratory results reported in a melting point compilation (Tetko et al.; mined from patent text by program, amines drawn as free bases though some values may be those of a salt).

| Compound | melting point [°C] |
| --- | --- |
| Clc1ccc2ncn3cnnc3c2c1 | 179 to 182 |
| CCCCCCCCCCc1cnc(-c2ccc(OCC(C)(C#N)CCCC)cc2)nc1 (stereo not given) | 43 |
| CCCCCOc1ccccc1C1=NNC(=O)CC1 | 50 to 52 |
| CC(C)(c1ccc(-c2nc(Nc3ccc(F)cc3)ncc2C#N)cc1)N1CCCC1 | 124 |
| OC[C@@H](O)[C@@H](O)[C@H](O)[C@@H](O)CNC1CCCCC1 | 144 to 146 |
| CC(C)(C)Cc1ccc(C(=O)O)cc1 | 191 to 193 |
| CC(C)(C)OC(=O)c1ncn2c1[C@@H]1CCCN1C(=O)c1cc(F)ccc1-2 | 154 to 155 |
| CCn1c(=O)n(-c2ccc(Oc3nc4cccnc4n3C)cc2)c2nccc(C(F)(F)F)c21 | 244 to 246 |
| O=C(O)c1nc2ccc(NCCCN3CCC(OC(c4ccccc4)c4ccccc4)CC3)nn2n1 | 135 to 138 |
| CN(C)Cc1ccc(CNCCN2CCNC2=C(C#N)C#N)o1 | 159 to 160 |
| CCCN(c1nc(-c2ccc(Cl)cc2Cl)c(C=O)s1)C(C)c1ccncc1 (stereo not given) | 114 |
| Cc1cccc(N2CCN(CCCOc3ccc4ccc(=O)oc4c3)CC2)c1C | 89 |
| O=C(C(=O)c1cccc(OCc2ccccc2)c1)c1cc[nH]c1 | 124 to 125 |
| CCc1cccc2c1C(=O)C(=S)N2 | 171 to 172 |
| O=C(CO)c1cc(O)c(O)c([N+](=O)[O-])c1 | 208 to 210 |
| CC1(N2C(=O)c3cccc(NCc4cccc(Cl)c4)c3C2=O)CCC(=O)NC1=O (stereo not given) | 199 to 201 |
| CCCCCCCCCCCCc1ccc(COc2cc(C(=O)O)nc3ccc(C)cc23)cc1 | 95 to 96 |
| Cc1oc(-c2ccccc2)nc1COc1ccc(CON=C(CCC(=O)O)c2ccc(F)cc2)cc1 | 139 to 140 |
| NS(=O)(=O)c1ccc(-c2cc3n(c2-c2ccc(F)cc2)CCC3)cc1 | 207 |
| N#Cc1cccc(C2=Nc3ccc(-c4ccc(-c5ccccc5)cc4)cc3NC(=O)C2)c1 | 251 to 253 |
| CCc1cc(N(C=O)c2ccccc2)cc(CC)c1N=C=S | 77 to 78 |

| Compound | melting point [°C] |
| --- | --- |
| O=Cc1c(Cl)n(CC2CC2)c2ccccc12 | 108 to 109 |
| COc1ccccc1N1CCN(CCc2ccc3c(c2)oc(=O)n3C)CC1 | 137 to 138 |
| c1ccc(OCCSCc2nnc(-c3ccc(OCCCN4CCOCC4)cc3)o2)cc1 | 65 |
| CC(=O)c1c(-c2cccs2)[nH]c(-c2ccncc2)c1C | 231 to 232 |
| O=c1c2cc(F)c(N3CCCC3)cc2n(CC2CC2)c(=O)n1O | 211 to 213 |
| N#Cc1c(F)c(F)cc(C(=O)O)c1F | 187 to 190 |
| COc1ccc2c(c1)C(c1ccc(Cl)cc1)=C1CCC(=S)NC12 (stereo not given) | 202 to 203 |
| Clc1cccc(Nc2ncnc3[nH]c(CN4CCOCC4)cc23)c1 | 244 to 246 |
| O=c1[nH]c2ncncc2s1 | > 108 |
| COc1cc(C(=O)c2cccnc2)ccc1OCc1ccccc1 | 76 |
| N#Cc1ccc(C(Cc2ccc(C#N)cn2)Cn2cncn2)cc1 (stereo not given) | 98 |
| C[C@@]12CCCN1[C@@H](C(Cl)(Cl)Cl)OC2=O | 55 to 57 |
| CCCCCCCCCCCCn1nnc(C(C(=O)Nc2c(C(C)C)cccc2C(C)C)(c2ccccc2)c2ccccc2)n1 | 154 to 156 |
| COc1ccc(CN(c2ccc(F)c(Cl)c2)c2ncnc3cc(OCCCN4CCOCC4)c([N+](=O)[O-])cc23)cc1OC | 129 to 132 |
| Nc1ccc(C(=O)c2cc(F)ccc2F)cc1 | 101 to 103 |
| O=C(Nc1cc(-c2nc(-c3ccccc3)c[nH]2)ccn1)c1ccccc1 | 265 to 267 |
| COc1ccc(S(=O)(=O)N(Cc2cccnc2)c2c(C)cc(-c3cccs3)cc2C(=O)O)cc1 | 191 |
| CCC(CC)c1ccc(N(Cc2ccc(-c3csc(COc4cncc(C(=O)O)c4)n3)cc2)C(C)C)cc1 | 202 |
| CCOC(=O)NNC1=Nc2sc(CC)cc2C(c2ccccc2Cl)=NC1 | 207 |
| C[C@H](Cn1cccn1)n1cnc2cc3c(=O)n([C@H](C)Cn4cc(Cl)cn4)cnc3cc2c1=O | 231 to 232 |

The next lines start with the values.

| melting point [°C] | Compound |
| --- | --- |
| 123 to 125 | CCCCOCCOc1ccc(-c2cnc3c(c2)C=C(C(=O)O)CCCN3CCC)cc1 |
| 110 | COc1cc2c(c(OC)c1OC)CN(CCc1ccc([N+](=O)[O-])cc1)CC2 |
| 31 | CC(=O)CSc1nnnn1C |
| 220 to 221 | Cc1nc(-c2ccc(F)cc2)n(-c2ccc(S(N)(=O)=O)cc2)n1 |
| 121 to 124 | CC(C)Oc1ccc(C(=O)n2nc(Nc3cccc(N4CCCCC4)c3)nc2N)cc1 |
| 170 to 171 | COc1ccc(CNC(=O)c2cc3c(=O)n(CCOc4ccc(F)cc4)c(=O)n(C)c3s2)cc1 |
| 254 to 255 | CCCc1ccc(S(=O)(=O)Nc2ccc3snc(NC(C)=O)c3c2)cc1 |
| 46 to 47 | CCOC(=O)CC(=O)c1ccc(-c2ccc(Cl)cc2)o1 |
| 85 to 88 | Nc1cccc2c1CCN(C(=O)C(F)(F)F)CC2 |
| 96 to 99 | COC(=O)C1=Cc2cc(Br)ccc2N(CC2(C)OCCO2)CC1 |
| 230 | COCCC(=O)OCC(=O)C1(O)CCC2C3CC(C)C4=CC(=O)C=CC4(C)C3C(O)CC21C (stereo not given) |
| 118 to 122 | C=Cc1ccc(Nc2nc(Cl)nc(OC)n2)cc1 |
| 145 | CC(C#Cc1ccc(-c2cccnc2S)o1)N(O)C(N)=O (stereo not given) |
| 216 | COC(=O)C1=C(C)NC(C=O)=C(C(=O)OC)C1c1cccc2c(=O)c(C)c(-c3ccccc3)oc12 (stereo not given) |
| > 250 | CCOc1ccc2nc(N3CCN(c4nc(N)c5cc(OC)c(OC)cc5n4)CC3)nc-2cc1 |
| 148 to 151 | CC(=O)CCn1nc(C)c(-c2ccc3c(c2)NC(=O)CO3)c1-c1ccc(F)cc1 |
| 268 to 280 | Cc1cc2c(C(=O)O)ccc(C(=O)O)c2cc1C |
| 232 to 236 | Cn1ncc(C(=O)N2CCC2)c1C(=O)Nc1ccn2nc(-c3cccc(F)c3)nc2c1 |
| 252 to 254 | CCCc1cc(-c2ccc(Cl)cc2)nc2c(C(=O)Nc3cccc(S(N)(=O)=O)c3)cnn12 |
| 91 to 92 | CCOC(=O)CN1CCN(S(=O)(=O)c2ccc(N3CCC(NC[C@H](O)c4ccc(O)c(NS(C)(=O)=O)c4)CC3)cc2)CC1 |
| 149 to 151 | CC(=O)Oc1ccc2ncnc(Nc3ccc(OCc4ccccn4)c(C)c3)c2c1 |
| 222 to 224 | Cc1csc(N2CCN(Cc3ccc(C(=O)O)cc3)C2=O)n1 |
| 215 to 217 | Nc1ncnc2c1ncn2C1CC(C=Cc2ccccc2)C(CO)O1 (stereo not given) |
| 142 to 144 | C=Cc1cc(C)cc(C)c1CC(=O)NC1(C(=O)OC)CCN(OC)CC1 |
| 198 to 199 | C=Cc1cn([C@@H]2O[C@H](C)[C@@H](OC(C)=O)[C@H]2OC(C)=O)c(=O)nc1N |
| 76.5 to 78 | COc1cccc(C2CCC(O)O2)c1 (stereo not given) |
| 230 to 235 | CC1CCn2nc(S(=O)(=O)Nc3c(Cl)cccc3Cl)nc2N1 (stereo not given) |
| 189 to 192 | COc1ccc(N2CCOCC2)c2sc(NC(=O)N(C)C3CCC(F)(F)CC3)nc12 |
| 219 | CC1OC(n2cnc3c(Nc4ccccc4)ccnc32)C(O)C1O (stereo not given) |
